According to US11925608B2 (YS PHARMTECH, priority 2017, dated 2024):
Where two headings read alike, the source gives them in different places.

Key:
[1] = aqueous solution, cited from earlier work
[2] = Stability of epinephrine formulations after 1 month storage at 50° C. (HPLC potency, degradants, pH, appearance, O.D.); type: physicochemical
Protocol: Selected samples were also tested for drug chirality. The potency and chirality of drug were analyzed using HPLC methods. The degree of coloration was visually inspected and analytically measured their optical densities using a UV/VIS spectrophotometer at the maximum absorption wavelength (λmax) at 485 nm.

[3] = 1:10 cysteine-to-drug complex and commercial formulation
[4] = non-complex, acetylcysteine levels
[5] = non-complex, mixed antioxidants
[6] = non-complex, thioglycerol levels
[7] = pediatric formulations (1:2000)

Row | SMILES | association constant (K) of the inclusion complex with SBEβCD ([1]; pH 3.5) | association constant (K) of the inclusion complex with SBEβCD ([1]; pH 5.5) | Appearance ([2]; 1:1 cysteine-to-drug) | O.D. (Absorbance at λmax = 485 nm) ([2]; 1:1 cysteine-to-drug) | Appearance [2, 3] | O.D. (Absorbance at λmax = 485 nm) [2, 3] | Appearance ([2]; 2:1 cysteine-to-drug) | O.D. (Absorbance at λmax = 485 nm) ([2]; 2:1 cysteine-to-drug) | Appearance ([2]; 5:1 cysteine-to-drug) | O.D. (Absorbance at λmax = 485 nm) ([2]; 5:1 cysteine-to-drug) | Appearance [2, 4] | O.D. (Absorbance at λmax = 485 nm) [2, 4] | Appearance ([2]; non-complex, cysteine levels) | O.D. (Absorbance at λmax = 485 nm) ([2]; non-complex, cysteine levels) | Appearance [2, 5] | O.D. (Absorbance at λmax = 485 nm) [2, 5] | Appearance [2, 6] | O.D. (Absorbance at λmax = 485 nm) [2, 6] | Appearance [2, 7] | O.D. (Absorbance at λmax = 485 nm) [2, 7]
1 | CNCC(O)c1ccc(O)c(O)c1 (single isomer, unassigned; (-)) [epinephrine, (−)-3,4-Dihydroxy-α-[(methylamino)methyl]benzyl alcohol] | 488 M⁻¹ | 111 M⁻¹ | – | – | – | – | – | – | – | – | – | – | – | – | – | – | – | – | – | –
2 | II [0.0005N Iodine] | – | – | Slightly brownish | 0.1206 | Slightly brownish | 0.1354 | Slightly brownish | 0.1206 | Slightly brownish | 0.1290 | Slightly brownish | 0.1354 | Slightly brownish | 0.1354 | Slightly brownish | 0.1354 | Slightly brownish | 0.1354 | Slightly brownish | 0.1354
